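Compound exposure: 48 hours, 5 concentrations, 96-well plates. Here, GI50 denotes the concentration required for 50% inhibition of growth.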 Calls of active or inactive are those of the source. Rule as the data show it: active = GI50 up to about 1.1 µM and inactive = higher.
What was measured:
Experiment in all cases: growth of human tumour cells (NCI), 48 h
HCC 2998 = test system: HCC 2998
HCT-116 = test system: HCT-116
HCT-15 = test system: HCT-15
IGROV-1 = test system: IGROV-1
K562 = test system: K562
Malme-3M = test system: Malme-3M
NCI-H23 = test system: NCI-H23
NCI-H460 = test system: NCI-H460
NCI-H522 = test system: NCI-H522
NCI/ADR-RES = test system: NCI/ADR-RES
PC-3 = test system: PC-3
RXF 393 = test system: RXF 393
SF-268 = test system: SF-268
SK-OV-3 = test system: SK-OV-3
SN12C = test system: SN12C
UACC-257 = test system: UACC-257
MDA-MB-435 = test system: MDA-MB-435
T47D = test system: T47D

With `COc1ccc(C(O)c2nccn2C)c(OC)c1` (configuration not stated) the GI50 (HCC 2998) was > 100 µM (inactive), the GI50 (HCT-116) was > 100 µM (inactive) and the GI50 (HCT-15) was > 100 µM. For the same compound, the GI50 (IGROV-1) was > 100 µM (inactive), the GI50 (K562) was > 100 µM (inactive) and the GI50 (Malme-3M) was > 100 µM (inactive). For the same compound, the GI50 (NCI-H23) was > 100 µM (inactive), the GI50 (NCI-H460) was > 100 µM (inactive) and the GI50 (NCI-H522) was > 100 µM (inactive). The GI50 (NCI/ADR-RES) was > 100 µM (inactive), the GI50 (PC-3) was > 100 µM (inactive) and the GI50 (RXF 393) was > 100 µM (inactive). For the same compound, the GI50 (SF-268) was > 100 µM (inactive), the GI50 (SK-OV-3) was 17.4 µM (inactive) and the GI50 (SN12C) was > 100 µM (inactive). For the same compound, the GI50 (UACC-257) was > 100 µM (inactive).

With `COc1ccc2nc3n(c2c1)C(c1c(F)cccc1Cl)SC3` (configuration not stated) the GI50 (HCC 2998) was > 100 µM (inactive), the GI50 (HCT-116) was > 100 µM (inactive) and the GI50 (HCT-15) was > 100 µM. For the same compound, the GI50 (IGROV-1) was > 100 µM (inactive), the GI50 (K562) was > 100 µM (inactive) and the GI50 (MDA-MB-435) was > 100 µM (inactive). The GI50 (NCI-H23) was > 100 µM (inactive), the GI50 (NCI-H460) was > 100 µM (inactive) and the GI50 (NCI/ADR-RES) was 23.3 µM (inactive). For the same compound, the GI50 (PC-3) was > 100 µM (inactive), the GI50 (RXF 393) was > 100 µM (inactive) and the GI50 (SK-OV-3) was > 100 µM (inactive). The GI50 (SN12C) was > 100 µM (inactive), the GI50 (T47D) was > 100 µM (inactive) and the GI50 (UACC-257) was > 100 µM (inactive).

For `O=C(NNC(=O)c1csc(NC(=S)NC2CCCCC2)n1)c1ccccc1`, the GI50 (HCC 2998) was 13.9 µM (inactive), the GI50 (HCT-116) was 2.7 µM (inactive) and the GI50 (HCT-15) was 2.74 µM. The GI50 (IGROV-1) was 1.96 µM (inactive), the GI50 (MDA-MB-435) was 15.6 µM (inactive) and the GI50 (Malme-3M) was 15.5 µM (inactive). For the same compound, the GI50 (NCI-H23) was 16.7 µM (inactive), the GI50 (NCI-H522) was 11.7 µM (inactive) and the GI50 (NCI/ADR-RES) was 4.85 µM (inactive). The GI50 (PC-3) was 7.82 µM (inactive), the GI50 (SF-268) was 5.66 µM (inactive) and the GI50 (SK-OV-3) was 12.1 µM (inactive). For the same compound, the GI50 (SN12C) was 5.97 µM (inactive), the GI50 (T47D) was 3.37 µM (inactive) and the GI50 (UACC-257) was 7.96 µM (inactive).

In the case of `COC(=O)C(=O)C(C(=O)C1=NS(=O)(=O)c2cc(S(N)(=O)=O)c(Cl)cc2N1)c1nc2ccc(C(=O)c3ccccc3)cc2nc1O` (configuration not stated), the GI50 (HCC 2998) was > 100 µM (inactive), the GI50 (HCT-116) was > 100 µM (inactive) and the GI50 (HCT-15) was > 100 µM. The GI50 (IGROV-1) was > 100 µM (inactive), the GI50 (K562) was 40 µM (inactive) and the GI50 (Malme-3M) was > 100 µM (inactive). For the same compound, the GI50 (NCI-H23) was 2.6 µM (inactive), the GI50 (NCI-H460) was > 100 µM (inactive) and the GI50 (NCI-H522) was 37.2 µM (inactive). The GI50 (RXF 393) was > 100 µM (inactive), the GI50 (SF-268) was > 100 µM (inactive) and the GI50 (SN12C) was > 100 µM (inactive). For the same compound, the GI50 (UACC-257) was 71.6 µM (inactive).

With `O=C1CCC2SC1CCC2=O` the GI50 (HCC 2998) was > 100 µM (inactive), the GI50 (HCT-116) was > 100 µM (inactive) and the GI50 (HCT-15) was > 100 µM. The GI50 (IGROV-1) was > 100 µM (inactive), the GI50 (K562) was > 100 µM (inactive) and the GI50 (MDA-MB-435) was > 100 µM (inactive). The GI50 (Malme-3M) was > 100 µM (inactive), the GI50 (NCI-H23) was > 100 µM (inactive) and the GI50 (NCI-H460) was > 100 µM (inactive). For the same compound, the GI50 (NCI-H522) was > 100 µM (inactive), the GI50 (NCI/ADR-RES) was > 100 µM (inactive) and the GI50 (PC-3) was > 100 µM (inactive). The GI50 (RXF 393) was > 100 µM (inactive), the GI50 (SF-268) was > 100 µM (inactive) and the GI50 (SK-OV-3) was > 100 µM (inactive). The GI50 (SN12C) was > 100 µM (inactive) and the GI50 (UACC-257) was > 100 µM (inactive).

With `O=c1cc(CSc2c(-c3ccccc3)c(=O)n(-c3ccccc3)c(=S)n2-c2ccccc2)[nH]c(=O)[nH]1` the GI50 (HCC 2998) was > 100 µM (inactive), the GI50 (HCT-116) was > 100 µM (inactive) and the GI50 (HCT-15) was > 100 µM. The GI50 (IGROV-1) was > 100 µM (inactive), the GI50 (K562) was > 100 µM (inactive) and the GI50 (MDA-MB-435) was > 100 µM (inactive). For the same compound, the GI50 (NCI-H460) was > 100 µM (inactive), the GI50 (NCI/ADR-RES) was > 100 µM (inactive) and the GI50 (PC-3) was > 100 µM (inactive). The GI50 (RXF 393) was > 100 µM (inactive), the GI50 (SF-268) was > 100 µM (inactive) and the GI50 (SK-OV-3) was > 100 µM (inactive). The GI50 (SN12C) was > 100 µM (inactive), the GI50 (T47D) was > 100 µM (inactive) and the GI50 (UACC-257) was > 100 µM (inactive).

`COc1ccc(-c2c(-c3ccc(OC)cc3)n3c(=O)n(C)c(=O)n23)cc1` was tested, and the GI50 (HCC 2998) was > 100 µM (inactive), the GI50 (HCT-116) was > 100 µM (inactive) and the GI50 (HCT-15) was 81.5 µM. For the same compound, the GI50 (IGROV-1) was > 100 µM (inactive), the GI50 (K562) was > 100 µM (inactive) and the GI50 (MDA-MB-435) was > 100 µM (inactive). For the same compound, the GI50 (Malme-3M) was 91.6 µM (inactive), the GI50 (NCI-H23) was > 100 µM (inactive) and the GI50 (NCI-H522) was > 100 µM (inactive). The GI50 (NCI/ADR-RES) was 18.4 µM (inactive), the GI50 (PC-3) was 27.4 µM (inactive) and the GI50 (RXF 393) was 76.4 µM (inactive). For the same compound, the GI50 (SK-OV-3) was 50.5 µM (inactive), the GI50 (SN12C) was 34 µM (inactive) and the GI50 (T47D) was 20.6 µM (inactive). The GI50 (UACC-257) was 50.5 µM (inactive).
